Where two headings read alike, the source gives them in different places.
Columns and labels:
[1] = system: colorectal cancer (6 cell lines); assay: CellTiter-Glo Viability Assay, colorectal cancer; type: cell-based; conditions: Homo sapiens, inhibition of cancer cell proliferation
[2] = system: ovarian cancer (4 cell lines); assay: CellTiter-Glo Viability Assay, ovarian cancer; type: cell-based; conditions: Homo sapiens, inhibition of cancer cell proliferation
[3] = system: prostate cancer (5 cell lines); assay: CellTiter-Glo Viability Assay, prostate cancer; type: cell-based; conditions: Homo sapiens
DU4475 = assay: CellTiter-Glo Viability Assay, breast cancer; type: cell-based; conditions: Homo sapiens, DU-4475, 96 h; DU4475, breast cancer, four days; read-out: EC50
ZR-75-1 = assay: CellTiter-Glo Viability Assay, breast cancer; type: cell-based; conditions: Homo sapiens, 96 h; ZR-75-1, breast cancer, four days; read-out: EC50
BT-549 = assay: CellTiter-Glo Viability Assay, breast cancer; type: cell-based; conditions: Homo sapiens, 96 h; BT-549, breast cancer, four days; read-out: EC50
HCC1599 = assay: CellTiter-Glo Viability Assay, breast cancer; type: cell-based; conditions: Homo sapiens, 96 h; HCC1599, breast cancer, four days; read-out: EC50
T47D = assay: CellTiter-Glo Viability Assay, breast cancer; type: cell-based; conditions: Homo sapiens, 96 h, breast cancer, four days, read-out: EC50
MCF7 = assay: CellTiter-Glo Viability Assay, breast cancer; type: cell-based; conditions: Homo sapiens, 96 h; MCF7, breast cancer, four days; read-out: EC50
CAMA1 = assay: CellTiter-Glo Viability Assay, breast cancer; type: cell-based; conditions: Homo sapiens, CAMA-1, 96 h; CAMA1, breast cancer, four days; read-out: EC50
MDA-MB-231-Luc = assay: CellTiter-Glo Viability Assay, breast cancer; type: cell-based; conditions: Homo sapiens, 96 h; MDA-MB-231-Luc, breast cancer, four days; read-out: EC50
all 50 cell lines = assay: CellTiter-Glo Viability Assay, average across all cell lines; type: cell-based; conditions: Homo sapiens; across all 50 cell lines; read-out: average EC50 for inhibition of cancer cell proliferation
Outline: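 Proliferation of a multi-tissue human cancer line panel is assessed over four days at 37° C and 5% CO2, seeding 300-3,000 cells/well. Viability is quantified by CellTiter-Glo luminescence, and EC50 values are calculated.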

[4] = system: pancreatic cancer (8 cell lines); assay: CellTiter-Glo Viability Assay, pancreatic cancer; type: cell-based; conditions: Homo sapiens, inhibition of cancer cell proliferation
CLK2 = target: T1, CLK2 (Homo sapiens, UniProt P49760); assay: CLK2 kinase activity assay (Z-lyte, Ser/Thr 6 peptide); type: biochemical; conditions: recombinant CLK2 kinase, ATP 60 μM; read-out: EC50
T1 construct: purchased Thermo Fisher (Life Technologies), Z'-LYTE Kinase Assay Kits
T1 sequence (P49760 whole entry): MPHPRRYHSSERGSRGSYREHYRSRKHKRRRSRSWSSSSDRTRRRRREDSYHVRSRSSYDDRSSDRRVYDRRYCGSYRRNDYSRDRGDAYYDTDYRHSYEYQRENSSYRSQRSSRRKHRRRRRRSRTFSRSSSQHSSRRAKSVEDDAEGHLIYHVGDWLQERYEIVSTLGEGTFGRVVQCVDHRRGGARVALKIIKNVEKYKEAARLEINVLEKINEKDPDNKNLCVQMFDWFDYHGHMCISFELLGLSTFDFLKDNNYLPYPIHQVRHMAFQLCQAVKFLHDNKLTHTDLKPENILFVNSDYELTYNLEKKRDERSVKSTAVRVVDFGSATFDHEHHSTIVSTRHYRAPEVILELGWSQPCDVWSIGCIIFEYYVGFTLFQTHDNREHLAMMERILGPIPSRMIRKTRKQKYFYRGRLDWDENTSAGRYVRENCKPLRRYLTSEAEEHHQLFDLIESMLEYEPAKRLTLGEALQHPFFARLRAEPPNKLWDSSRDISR
Description: All reactions were performed in duplicate.

CLK3 = CLK3 (Homo sapiens, UniProt P49761); assay: CLK3 kinase activity assay (Z-lyte, Ser/Thr 18 peptide)
Chain of CLK3 (P49761 whole entry): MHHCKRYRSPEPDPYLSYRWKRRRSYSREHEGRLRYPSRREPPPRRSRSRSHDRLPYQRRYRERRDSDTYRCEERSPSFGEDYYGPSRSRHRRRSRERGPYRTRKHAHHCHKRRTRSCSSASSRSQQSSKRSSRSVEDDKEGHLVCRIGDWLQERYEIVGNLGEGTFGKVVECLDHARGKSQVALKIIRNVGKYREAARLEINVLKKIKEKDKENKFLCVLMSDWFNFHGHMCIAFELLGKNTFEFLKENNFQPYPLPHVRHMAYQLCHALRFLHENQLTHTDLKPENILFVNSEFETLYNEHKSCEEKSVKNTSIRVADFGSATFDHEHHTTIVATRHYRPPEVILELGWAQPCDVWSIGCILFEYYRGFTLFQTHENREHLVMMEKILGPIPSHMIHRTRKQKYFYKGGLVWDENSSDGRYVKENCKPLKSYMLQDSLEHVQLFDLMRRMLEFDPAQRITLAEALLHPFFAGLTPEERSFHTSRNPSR
Description: Each compound was dissolved in DMSO as a 10 mM stock and used to prepare compound source plates.
This is a non-radioactive assay using fluorescence resonance energy transfer (FRET) between coumarin and fluorescein to detect kinase activity which is represented as a ratio of coumarin emission/fluorescein emission.
All reactions were performed in duplicate. Unphosphorylated (“0% Control”) and phosphorylated (“100% control”) forms of Ser/Thr 18 served as control reactions. Additionally, an 11-point dose-response curve of Staurosporine (1 uM top) was run to serve as a positive compound control.
After incubation, Development Reagent A was diluted in Development Buffer then added to the reaction and allowed to further incubate for one hour at room temperature.
Dose-response curves were generated and inhibitory concentration (IC50) values were calculated using non-linear regression curve fit in the Dotmatics' Studies Software (Bishops Stortford, UK).
Compounds were acoustically transferred on 1536-well plates (Echo 550, LabCyte) instrument. Kinase, peptide, and ATP reagents from the Z′-LYTE Kinase Assay Kits (Thermo Fisher) were dispensed onto the compound plates using an EL406 liquid dispenser (BioTek). Plates were incubated in the dark at room temperature for 1 hr. Development reagent was added to the plates and then incubated in the dark at room temperature for 1 hr. Fluorescence signal form the plate was then read using an EnVision Multilabel Plate Reader (Perkin Elmer).

[5] = system: haematopoietic & lymphoid tumors (13 cell lines); assay: CellTiter-Glo Viability Assay, haematopoietic & lymphoid tumors; type: cell-based; conditions: Homo sapiens, inhibition of cancer cell proliferation
[6] = system: lung cancer (4 cell lines); assay: CellTiter-Glo Viability Assay, lung cancer; type: cell-based; conditions: Homo sapiens, inhibition of cancer cell proliferation
[7] = system: liver cancer (3 cell lines); assay: CellTiter-Glo Viability Assay, liver cancer; type: cell-based; conditions: Homo sapiens, inhibition of cancer cell proliferation

Question: Which EC50 ([1]; HCT-116, HCT116 cell line, read-out: Colorectal cancer, EC50 (μM) HCT116) does the source give for `CN(C)C1CCN(c2cc(C(=O)Nc3ncc4ccc(-c5cn(C)nn5)cc4n3)ccn2)CC1` [Compound 80] here?
Answer: 2.06 µM

Question: And the EC50 ([1]; HT-29, HT29 cell line, read-out: Colorectal cancer, EC50 (μM) HT29)?
Answer: 6.22 µM

Question: What about the EC50 ([1]; SW-620, SW620 cell line, read-out: Colorectal cancer, EC50 (μM) SW620) of the same compound?
Answer: 1.4 µM

Question: And the EC50 ([1]; DLD-1 cell line, read-out: Colorectal cancer, EC50 (μM) DLD-1)?
Answer: 7.22 µM

Question: What about the EC50 ([1]; SW48 cell line, read-out: Colorectal cancer, EC50 (μM) SW48) of the same compound?
Answer: 0.926 µM

Question: And the EC50 ([1]; SW480 cell line, read-out: Colorectal cancer, EC50 (μM) SW480)?
Answer: 1.51 µM

Question: What about the EC50 ([2]; PA-1, PA1 cell line, read-out: Ovarian cancer, EC50 (μM) PA1) of the same compound?
Answer: 3.18 µM

Question: What about the EC50 ([2]; TOV112D, TOV-112D cell line, read-out: Ovarian cancer, EC50 (μM) TOV-112D) of the same compound?
Answer: 1.97 µM

Question: And the EC50 ([2]; OV-90 cell line, read-out: Ovarian cancer, EC50 (μM) OV-90)?
Answer: 5.6 µM

Question: And the EC50 ([2]; OVCAR-3 cell line, read-out: Ovarian cancer, EC50 (μM) OVCAR-3)?
Answer: 1.41 µM

Question: What about the EC50 ([3]; DU-145, read-out: Prostate cancer EC50 Du-145) of the same compound?
Answer: 5.78 µM

Question: What about the EC50 ([3]; PC-3, PC3 cell line, inhibition of cancer cell proliferation, read-out: Prostate cancer EC50 PC3) of the same compound?
Answer: 3.98 µM

Question: And the EC50 ([3]; 22Rv1 cell line, inhibition of cancer cell proliferation, read-out: Prostate cancer EC50 22Rv1)?
Answer: 2.85 µM

Question: And the EC50 ([3]; LNCap clone FGC cell line, inhibition of cancer cell proliferation, read-out: Prostate cancer EC50 LNCap clone FGC)?
Answer: 9.12 µM

Question: And the EC50 ([3]; VCaP (Sigma) cell line, inhibition of cancer cell proliferation, read-out: Prostate cancer EC50 VCaP (Sigma))?
Answer: 6.02 µM

Question: And the EC50 (DU4475)?
Answer: 3.21 µM

Question: What about the EC50 (ZR-75-1) of the same compound?
Answer: 4.03 µM

Question: What about the EC50 (BT-549) of the same compound?
Answer: 4.5 µM

Question: What about the EC50 (HCC1599) of the same compound?
Answer: 2.19 µM

Question: And the EC50 (T47D)?
Answer: 4.62 µM

Question: What about the EC50 (MCF7) of the same compound?
Answer: 6.64 µM

Question: What about the EC50 (CAMA1) of the same compound?
Answer: 3.09 µM

Question: And the EC50 (MDA-MB-231-Luc)?
Answer: 4.06 µM

Question: And the EC50 (all 50 cell lines)?
Answer: 4.07 µM

Question: What about the EC50 ([4]; BXPC-3, BxPC3 cell line, read-out: Pancreatic cancer, EC50 BxPC3) of the same compound?
Answer: 9.58 µM

Question: What about the EC50 ([4]; CAPAN-1, Capan1 cell line, read-out: Pancreatic cancer, EC50 Capan1) of the same compound?
Answer: 3.72 µM

Question: And the EC50 ([4]; Capan-2, Capan2 cell line, read-out: Pancreatic cancer, EC50 Capan2)?
Answer: 7.5 µM

Question: And the EC50 ([4]; MIA PaCa-2 cell line, read-out: Pancreatic cancer, EC50 MIA PaCa-2)?
Answer: 1.11 µM

Question: And the EC50 ([4]; PANC 05.04 cell line, read-out: Pancreatic cancer, EC50 PANC 05.04)?
Answer: 5.11 µM

Question: What about the EC50 ([4]; PANC-1 cell line, read-out: Pancreatic cancer, EC50 PANC-1) of the same compound?
Answer: 8.91 µM

Question: And the EC50 ([4]; UPAFII cell line, read-out: Pancreatic cancer, EC50 UPAFII)?
Answer: 3.51 µM

Question: What about the EC50 (CLK2) of the same compound?
Answer: 0.0089 µM

Question: What about the EC50 (CLK3) of the same compound?
Answer: 0.0386 µM

Question: And the EC50 ([5]; DND41, DND-41 cell line, read-out: Haematopoietic & Lymphoid tumors, EC50 (μM) DND-41)?
Answer: 2.11 µM

Question: What about the EC50 ([5]; MV4-11, MV-4-11 cell line, read-out: Haematopoietic & Lymphoid tumors, EC50 (μM) MV-4-11) of the same compound?
Answer: 0.879 µM

Question: And the EC50 ([5]; Rec1, REC-1 cell line, read-out: Haematopoietic & Lymphoid tumors, EC50 (μM) REC-1)?
Answer: 2.45 µM

Question: What about the EC50 ([5]; SU-DHL-4, SUDHL4 cell line, read-out: Haematopoietic & Lymphoid tumors, EC50 (μM) SUDHL4) of the same compound?
Answer: 2.27 µM

Question: And the EC50 ([5]; HL-60 cell line, read-out: Haematopoietic & Lymphoid tumors, EC50 (μM) HL-60)?
Answer: 3.25 µM

Question: What about the EC50 ([5]; JM1 cell line, read-out: Haematopoietic & Lymphoid tumors, EC50 (μM) JM1) of the same compound?
Answer: 1.19 µM

Question: What about the EC50 ([5]; JURKAT, Clone E6-1 cell line, read-out: Haematopoietic & Lymphoid tumors, EC50 (μM) JURKAT, Clone E6-1) of the same compound?
Answer: 4.05 µM

Question: What about the EC50 ([5]; JeKo-1 cell line, read-out: Haematopoietic & Lymphoid tumors, EC50 (μM) JeKo-1) of the same compound?
Answer: 0.731 µM

Question: What about the EC50 ([5]; KASUMI-1 cell line, read-out: Haematopoietic & Lymphoid tumors, EC50 (μM) KASUMI-1) of the same compound?
Answer: 3.05 µM

Question: And the EC50 ([5]; Loucy cell line, read-out: Haematopoietic & Lymphoid tumors, EC50 (μM) Loucy)?
Answer: 1.6 µM

Question: And the EC50 ([5]; MOLT-4 cell line, read-out: Haematopoietic & Lymphoid tumors, EC50 (μM) MOLT-4)?
Answer: 3.61 µM

Question: What about the EC50 ([5]; TF-1 cell line, read-out: Haematopoietic & Lymphoid tumors, EC50 (μM) TF-1) of the same compound?
Answer: > 10 µM

Question: What about the EC50 ([5]; TOLEDO cell line, read-out: Haematopoietic & Lymphoid tumors, EC50 (μM) TOLEDO) of the same compound?
Answer: 2.8 µM

Question: And the EC50 ([6]; A-427, A427 cell line, read-out: Lung cancer, EC50 (μM) A427)?
Answer: 2.81 µM

Question: And the EC50 ([6]; HCC78, HCC-78 cell line, read-out: Lung cancer, EC50 (μM) HCC-78)?
Answer: 5.46 µM

Question: What about the EC50 ([6]; NCI-H460 cell line, read-out: Lung cancer, EC50 (μM) NCI-H460) of the same compound?
Answer: > 10 µM

Question: What about the EC50 ([6]; NCI-H522 cell line, read-out: Lung cancer, EC50 (μM) NCI-H522) of the same compound?
Answer: 1.59 µM

Question: And the EC50 ([7]; SNU-398, SNU398 cell line, read-out: Liver cancer, EC50 SNU398)?
Answer: 0.631 µM

Question: And the EC50 ([7]; HEPG2 cell line, read-out: Liver cancer, EC50 HEPG2)?
Answer: 3.68 µM

Question: What about the EC50 ([7]; PLC/PRF/5 cell line, read-out: Liver cancer, EC50 PLC/PRF/5) of the same compound?
Answer: > 10 µM

— US20220062240A1, “METHODS OF TREATING CANCER USING A CLK INHIBITOR” (BioSplice Therapeutics, Inc., priority 2018, published 2022)
